US20100267561A1, “HERBICIDAL PYRIDAZINONE DERIVATIVES” (priority 2007, published 2010)

Legend:
Experiment in all cases: Test B pre-/postemergence plant response
Assay type in all cases: in vivo
[1] = system: cocklebur (Xanthium strumarium); conditions: Preemergence; for Cocklebur plant response rating: 8 g ai/ha
Procedure, shortened: (§1)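 Visual scoring from 0 (no effect) to 100 (complete control) against untreated controls was done 13 to 15 days after greenhouse treatment. Chemicals were formulated in a surfactant-containing non-phytotoxic solvent and applied to soil preemergence or to 1- to 4-leaf (2-18 cm) plants postemergence.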

[2] = system: lambsquarters (Chenopodium album); conditions: Preemergence
Procedure, shortened: as §1

[3] = system: common ragweed (Ambrosia elation); conditions: Preemergence
Procedure, shortened: as §1

[4] = system: catchweed bedstraw (Galium aparine); conditions: Preemergence; for Galium plant response rating: 8 g ai/ha
Procedure, shortened: as §1

[5] = system: large crabgrass (Digitaria sanguinalis); conditions: Preemergence
Procedure, shortened: as §1

[6] = system: blackgrass (Alopecurus myosuroides); conditions: Preemergence; for Blackgrass plant response rating: 8 g ai/ha
Procedure, shortened: as §1

corn (Zea mays) = conditions: Preemergence
Procedure, shortened: as §1

wild oat (Avena fatua) = conditions: Preemergence
Procedure, shortened: as §1

[7] = system: green foxtail (Setaria viridis); conditions: Preemergence
Procedure, shortened: as §1

[8] = system: pigweed (Amaranthus retroflexus); conditions: Preemergence
Procedure, shortened: as §1

[9] = system: woolly cupgrass (Eriochloa villosa); conditions: Preemergence
Procedure, shortened: as §1

[10] = system: velvetleaf (Abutilon theophrasti); conditions: Preemergence; for Velvetleaf plant response rating: scale 0 to 100
Procedure, shortened: as §1

[11] = system: yellow nutsedge (Cyperus esculentus); conditions: Preemergence
Procedure, shortened: as §1

[12] = 31 g ai/ha, 0 to 100 scale, 0 no effect, 100 complete control
[13] = 31 g ai/ha, scale 0 to 100 (0 no effect, 100 complete control)
[14] = 16 g ai/ha, scale 0 to 100 (0 no effect, 100 complete control)
[15] = 62 g ai/ha, 0 to 100 scale, 0 no effect, 100 complete control

Cc1cc(-c2ccc(Cl)cc2)nn1-c1c(OS(=O)(=O)c2ccc(Cl)s2)cnn(C)c1=O [Compound 55]
Plant response rating, Cocklebur [1, 12]: 0
Plant response rating, Cocklebur ([1]; 62 g ai/ha, scale 0 to 100): 0
Cocklebur plant response rating ([1]; scale 0 to 100): 0
Plant response rating, Lambsquarters [2, 12]: 0
Plant response rating, Lambsquarters ([2]; 62 g ai/ha, scale 0 to 100): 0
Lambsquarters plant response rating ([2]; 8 g ai/ha, scale 0 to 100): 0
Lambsquarters plant response rating ([2]; 16 g ai/ha, scale 0 to 100): 0
Plant response rating, Ragweed [3, 13]: 0
Plant response rating, Ragweed ([3]; 62 g ai/ha, scale 0 to 100): 0
Ragweed plant response rating ([3]; 8 g ai/ha, scale 0 to 100): 0
Ragweed plant response rating ([3]; 16 g ai/ha, scale 0 to 100): 0
Plant response rating, Galium [4, 12]: 0
Plant response rating, Galium ([4]; 62 g ai/ha, scale 0 to 100): 0
Galium plant response rating ([4]; scale 0 to 100): 0
Plant response rating, Crabgrass, Large [5, 12]: 100
Plant response rating, Crabgrass, Large ([5]; 62 g ai/ha, scale 0 to 100): 100
Crabgrass, Large plant response rating ([5]; 8 g ai/ha, scale 0 to 100): 20
Crabgrass, Large plant response rating ([5]; 16 g ai/ha, scale 0 to 100): 98
Plant response rating, Blackgrass [6, 14]: 80
Plant response rating, Blackgrass [6, 12]: 100
Plant response rating, Blackgrass ([6]; 62 g ai/ha, scale 0 to 100): 100
Blackgrass plant response rating ([6]; scale 0 to 100): 0
Plant response rating, Corn (corn (Zea mays); [12]): 80
Plant response rating, Corn (corn (Zea mays); 62 g ai/ha, scale 0 to 100): 95
Corn plant response rating (corn (Zea mays); 8 g ai/ha, scale 0 to 100): 0
Corn plant response rating (corn (Zea mays); 16 g ai/ha, scale 0 to 100): 0
Plant response rating, Oat, Wild (wild oat (Avena fatua); [13]): 35
Plant response rating, Oat, Wild (wild oat (Avena fatua); 62 g ai/ha, scale 0 to 100): 70
Oat, Wild plant response rating (wild oat (Avena fatua); 8 g ai/ha, scale 0 to 100): 0
Oat, Wild plant response rating (wild oat (Avena fatua); 16 g ai/ha, scale 0 to 100): 0
Plant response rating, Foxtail, Green [7, 12]: 100
Plant response rating, Foxtail, Green ([7]; 62 g ai/ha, scale 0 to 100): 100
Foxtail, Green plant response rating ([7]; 8 g ai/ha, scale 0 to 100): 0
Foxtail, Green plant response rating ([7]; 16 g ai/ha, scale 0 to 100): 90
Plant response rating, Pigweed [8, 13]: 0
Plant response rating, Pigweed ([8]; 62 g ai/ha, scale 0 to 100): 0
Pigweed plant response rating ([8]; 8 g ai/ha, scale 0 to 100): 0
Pigweed plant response rating ([8]; 16 g ai/ha, scale 0 to 100): 0
Plant response rating, Cupgrass, Woolly [9, 12]: 100
Plant response rating, Cupgrass, Woolly ([9]; 62 g ai/ha, scale 0 to 100): 100
Cupgrass, Woolly plant response rating ([9]; 8 g ai/ha, scale 0 to 100): 15
Cupgrass, Woolly plant response rating ([9]; 16 g ai/ha, scale 0 to 100): 80
Plant response rating, Velvetleaf [10, 13]: 0
Plant response rating, Velvetleaf [10, 15]: 0
Velvetleaf plant response rating ([10]; 8 g ai/ha): 0
Velvetleaf plant response rating ([10]; 16 g ai/ha): 0
Plant response rating, Nutsedge, Yellow [11, 13]: 0
Plant response rating, Nutsedge, Yellow ([11]; 62 g ai/ha, scale 0 to 100): 0
Nutsedge, Yellow plant response rating ([11]; 8 g ai/ha, scale 0 to 100): 0
Nutsedge, Yellow plant response rating ([11]; 16 g ai/ha, scale 0 to 100): 0

Cc1cc(-c2ccc(Cl)cc2)nn1-c1c(OS(=O)(=O)c2cccc3ccccc23)cnn(C)c1=O [Compound 47]
Plant response rating, Cocklebur [1, 14]: 0
Plant response rating, Cocklebur [1, 12]: 0
Plant response rating, Cocklebur ([1]; 62 g ai/ha, scale 0 to 100): 0
Cocklebur plant response rating ([1]; scale 0 to 100): 0
Plant response rating, Lambsquarters [2, 12]: 0
Plant response rating, Lambsquarters ([2]; 62 g ai/ha, scale 0 to 100): 65
Lambsquarters plant response rating ([2]; 8 g ai/ha, scale 0 to 100): 0
Plant response rating, Ragweed [3, 14]: 0
Plant response rating, Ragweed [3, 13]: 0
Plant response rating, Ragweed ([3]; 62 g ai/ha, scale 0 to 100): 0
Ragweed plant response rating ([3]; 8 g ai/ha, scale 0 to 100): 0
Plant response rating, Galium [4, 14]: 0
Plant response rating, Galium [4, 12]: 0
Galium plant response rating ([4]; scale 0 to 100): 0
Plant response rating, Crabgrass, Large [5, 14]: 85
Plant response rating, Crabgrass, Large [5, 12]: 100
Plant response rating, Crabgrass, Large ([5]; 62 g ai/ha, scale 0 to 100): 100
Crabgrass, Large plant response rating ([5]; 8 g ai/ha, scale 0 to 100): 0
Plant response rating, Blackgrass [6, 14]: 70
Plant response rating, Blackgrass [6, 12]: 100
Plant response rating, Blackgrass ([6]; 62 g ai/ha, scale 0 to 100): 100
Blackgrass plant response rating ([6]; scale 0 to 100): 70
Plant response rating, Corn (corn (Zea mays); [14]): 20
Plant response rating, Corn (corn (Zea mays); [12]): 85
Plant response rating, Corn (corn (Zea mays); 62 g ai/ha, scale 0 to 100): 95
Corn plant response rating (corn (Zea mays); 8 g ai/ha, scale 0 to 100): 0
Plant response rating, Oat, Wild (wild oat (Avena fatua); [14]): 0
Plant response rating, Oat, Wild (wild oat (Avena fatua); [13]): 0
Plant response rating, Oat, Wild (wild oat (Avena fatua); 62 g ai/ha, scale 0 to 100): 70
Oat, Wild plant response rating (wild oat (Avena fatua); 8 g ai/ha, scale 0 to 100): 0
Plant response rating, Foxtail, Green [7, 14]: 80
Plant response rating, Foxtail, Green [7, 12]: 100
Plant response rating, Foxtail, Green ([7]; 62 g ai/ha, scale 0 to 100): 100
Foxtail, Green plant response rating ([7]; 8 g ai/ha, scale 0 to 100): 5
Plant response rating, Pigweed [8, 13]: 0
Plant response rating, Pigweed ([8]; 62 g ai/ha, scale 0 to 100): 0
Pigweed plant response rating ([8]; 8 g ai/ha, scale 0 to 100): 0
Plant response rating, Cupgrass, Woolly [9, 14]: 100
Plant response rating, Cupgrass, Woolly [9, 12]: 100
Plant response rating, Cupgrass, Woolly ([9]; 62 g ai/ha, scale 0 to 100): 100
Cupgrass, Woolly plant response rating ([9]; 8 g ai/ha, scale 0 to 100): 98
Plant response rating, Velvetleaf [10, 14]: 0
Plant response rating, Velvetleaf [10, 13]: 0
Plant response rating, Velvetleaf [10, 15]: 0
Velvetleaf plant response rating ([10]; 8 g ai/ha): 0
Plant response rating, Nutsedge, Yellow [11, 14]: 0
Plant response rating, Nutsedge, Yellow [11, 13]: 0
Plant response rating, Nutsedge, Yellow ([11]; 62 g ai/ha, scale 0 to 100): 0
Nutsedge, Yellow plant response rating ([11]; 8 g ai/ha, scale 0 to 100): 0
